# Measurements taken from patent US20090069418A1, “Compositions and Methods for the Treatment of Disorders Associated with Aberrant Vasodilation” (priority 2007, published 2009).
# Read-outs that look alike come from different tables or passages of the source.
# Assays:
# [1] = system: neonatal murine cardiomyocytes; assay: Oxygen-glucose deprivation of cultured cardiomyocytes transduced with TAT-hsEH, cell death by propidium iodide; assay type: cell-based; details: for cell survival after OGD: all polymorphisms/groups tested except Arg287Gln
# Protocol: Post natal Day 7-8 C57BL\6 mice were used. 3-4 hearts were obtained from same-gender mice. Cells were dissociated with 0.625% wt/volume trypsin in Ca^2+ and Mg^2+ free HBSS. The cells were centrifuged and re-suspended in FBS-M199. Cells were supplemented with estrogen-free 15% FBS, 100 U/ml penicillin, 100 μg/ml streptomycin, and 25 μM cytosine arabinoside. The cells were then plated at 37° C. for 1 hour under a water-saturated atmosphere of 5% CO2-[…]. Suspended cells were collected and plated at 1.0×10^5 cells/cm^2 and incubated as above for 24 hours.
# Six TAT-hsEH fusion proteins, including one wild type and five EPHX2 mutants (Lys55Arg, Arg103Cys, Cys154Tyr, Arg287Gln, and Arg103Cys/Arg287Gln), were expressed and purified as reported (Koerner et al. (2007) J. Neurosci., 27:4642-4649).
# TAT-hsEH fusion proteins were added to the medium of cultured cardiomyocytes to the final concentration of 100 nM. The cells were incubated at 37° C. for 24 hours before the onset of oxygen-glucose deprivation.
# For oxygen-glucose deprivation (OGD), cells were placed in a Plexiglas hypoxia chamber under 100% N2 at 37° C. and glucose-free medium (MEM/HBSS). For reoxygenation, cells were placed in 21% O2 (5% CO2) and glucose-replete FBS-M199 medium.
# Cell death was assessed via propidium iodide (PI, 5 μM) with >300 cells/sample.
# Cultured neonatal murine cardiomyocytes were transduced with five human EPHX2 variants linked to the protein transduction domain TAT. Cultures were subjected to 1.5 hours of oxygen and glucose deprivation followed by 3 hours of re-oxygenation, with or without sEH substrate 14,15-EET. Cell death was assessed by propidium iodide (% of all cells, mean±SEM, n=5-9 replicates). Successful transduction was confirmed by immunoblot. All mutants reduced cell death compared to the human wild-type EPHX2 (rh-sEHWT, 63±1%), but only the Arg287Gln mutations was different from untransduced controls (FIG. 13B).
# mice [2] = assay type: in vivo
# Source text: Male mice between the ages of 16-24 weeks were anesthetized with isoflurane (induction 4-5 vol %; maintenance 1-2 vol %), intubated with a 20G plastic IV catheter, and mechanically ventilated using a rodent ventilator (Inspira, volume-controlled, Harvard Apparatus, MA). ECG and rectal temperature were continuously monitored using a PC-based recording device (PowerLab 8/30, ADInstruments, Colorado Springs, Colo.). The animals were positioned in a right lateral decubital position on a heating pad and rectal temperature was maintained at 37° C. throughout the experiment. A PE-10 catheter was inserted into the left jugular vein for intravenous drug infusion. Using a dissecting microscope, a left-sided thoracotomy was performed in the 4th intercostal space. […] A ligature (8-0 Monosof MV-135-4, ⅜ 5 mm tapered needle, Syneture, Norwalk, Colo.) was placed around the left coronary artery (LCA) approximately 2 mm distal to the left atrial margin. The suture was fed through a short section of PE-10 tubing to form a snare to allow temporary occlusion. The LCA was occluded for 40 minutes; occlusion was confirmed by persistent ECG changes during occlusion and visual paling of the left ventricle (LV). After 40 minutes the snare was released and reperfusion was confirmed with visual hyperemia of the LV and return of the ECG changes. After 2 hours of reperfusion the LCA was re-occluded and fluorescent polymer microspheres (0.4% solution, diameter 1-10 μm; Duke Scientific Corporation, Palo Alto, Calif.) were infused via needle puncture of the LV apex. […] Heart was then excised, rinsed in normal saline, and the right and left atria were removed under the dissecting microscope. The remaining left and right ventricles were weighed and then sliced into seven sections (d=1 mm) for imaging and staining.
# Heart sections were immediately photographed with a digital camera (Canon Powershot A620) under UV light for determination of AAR. Infarct size (I) was determined by staining the heart sections in 1% 2,3,5 triphenyltetrazolium chloride (TTC) in phosphate buffer at pH 7.4 for 10 minutes, followed by 10% neutral buffered formalin (NBF) bath overnight. Pictures were taken the next day under full spectrum light. TTC stained non-infarcted myocardium red, while infarcted myocardium remained white. Both AAR and I areas were calculated in a blinded fashion using standard imaging software (Photoshop Elements 4). A calibration ruler was present in each picture to convert pixels into volume. TTC slices were volume corrected for dehydration following formalin immersion.
# The 14,15-EET was obtained from BIOMOL (Plymouth Meeting, Pa.). It was dissolved in a vehicle composed of 100% ethanol and saline (1:3), resulting in a final ethanol solution of 25%. […] SNC-162, a non-peptide δ-opioid receptor agonist, was used for comparison of the magnitude of cardioprotection found within the epoxide pathway. SNC-162 (0.1 μg/g iv over 10 minutes) was dissolved in 10% DMSO.
# mice [3] = assay: MCAO in mice, infarct size (Example 6); assay type: in vivo
# Source text: Transient focal cerebral ischemia was induced in adult male mice (20 to 26 g body weight) using the intraluminal MCAO technique, as previously described (Alkayed et al. (2001) J. Neurosci., 21:7543-7550). Briefly, mice were anesthetized with halothane (1.5 to 2% in O2-enriched air by face mask), and kept warm with water pads. A small laser-Doppler probe was affixed to skull to monitor cortical perfusion and verify vascular occlusion and reperfusion. A silicone-coated 6-0 nylon monofilament was inserted into the right internal carotid artery (ICA) via the external carotid artery (ECA) until laser-Doppler signal dropped to <30% of baseline. After securing the filament in place, the surgical site was closed, and the animal was awakened and assessed at 2 hours of occlusion for neurological deficit using a simple neurological scoring system as follows: 0=no deficit, 1=failure to extend forelimb, 2=circling, 3=unilateral weakness, 4=no spontaneous motor activity. […] Infarct size was measured at 24 hours after MCAO in 2-mm thick coronal brain sections (5 total) using 2,3,5-triphenyltetrazolium chloride (TTC) staining and digital image analysis. […] Slices were photographed and infracted (unstained) and uninfarcted (red color) areas were measured with MCID software (InterFocus, Linton, England) and integrated across all 5 slices. […]
# [4] = AUDA-BE and its metabolites measured in brain tissue; assay type: in vivo, mice; details: for levels detected in homogenates of brain tissue: after AUDA-BE injection, methanol/chloroform extraction
# Source text: This concentration was also biologically effective in lowering blood pressure in hypertensive model (Imig et al. (2005) Hypertension 46:975-81). Therefore, in these experiments, the levels of sEH inhibitors in the blood are in the concentration range expected to inhibit the enzyme.
# [5] = Pharmacokinetics of AUDA-BE and its metabolites in plasma after single intraperitoneal injection; assay type: in vivo, C57Bl/6 mice
# Protocol: A second set of animals was injected with sesame oil alone (vehicle). […] (2002) Biochem. Pharmacol., 63:1599-608; Watanabe et al. (2006) Anal. Chim. Acta., 559:37-44). Briefly, blood samples (10 μL) were collected in 1.5 mL Eppendorf microcentrifuge tubes, weighed, and vortexed with 100 μL of purified water. […] Aliquots (10 μL) were analyzed by liquid chromatography coupled mass spectroscopy LC-MS/MS (Watanabe et al. (2006) Anal. Chim. Acta., 559:37-44; Watanabe and Hammock (2001) Anal. Biochem., 299:227-34). The concentration of sEH inhibitors were quantified in extracts using HPLC with positive mode electrospray ionization and tandem mass spectrometry. Analytes were quantified on a 5-point curve with internal standard methods. Surrogate recoveries were evaluated by quantification against the internal standard. Surrogate recoveries were 70% for all reported plasma samples, the analysis of reagent blanks, matrix spikes, and analytical replicates were used to document method stability during this study. […] Differences in infarct size, enzyme activity, and blood flow rates were analyzed with a t-test for two groups and analysis of variance with post hoc Newman-Keuls multiple range test for multiple groups. The pharmacokinetic profile was examined for goodness of fit to a noncompartmental or multicompartmental models. Pharmacokinetic parameters were then obtained by fitting the blood-concentration-time data to a non-compartmental model with the WinNonlin software (Pharsight, Mountain View, Calif., USA), as described previously (Watanabe et al. (2006) Anal. Chim. Acta., 559:37-44). The criterion for statistical significance was set at P<0.05. All values are reported as mean±s.e.m.
# C57Bl/6 mice = assay: Middle cerebral artery occlusion in mice, infarct size (Example 2); assay type: in vivo; details: MS-PPOH alone
# Protocol: (2001) J. Neurosci., 21:7543-50). […] A small laser-Doppler probe was affixed to the skull to monitor cortical perfusion and verify vascular occlusion and reperfusion. […] After securing the filament in place, the surgical site was closed, and the animal was awakened and assessed at 2 hours of occlusion for neurological deficit using a simple neurological scoring system as follows: 0=no deficit, 1=failure to extend forelimb, 2=circling, 3=unilateral weakness, 4=no spontaneous motor activity. Mice with clear neurological deficit were re-anesthetized, laser-Doppler probe re-positioned over same site on the skull, and the occluding filament was withdrawn to allow for reperfusion. Mice were then allowed to recover and observed for 1 day. […] Slices were photographed, and infarcted (unstained) and uninfarcted (red color) areas were measured with MCID software (InterFocus Imaging Ltd, Linton, UK) and integrated across all five slices. To account for the effect of edema, the infarcted area was estimated indirectly by subtracting the uninfarcted area in the ipsilateral hemisphere from the contralateral hemisphere, and expressing infarct volume as a percentage of contralateral hemisphere. […] (2000) J. Physiol. Pharmacol., 51:655-72). […] Animals were randomly assigned to treatment groups.
# [6] = given prior to LCA occlusion (PRE)
# [7] = AUDA-BE 10 mg/kg intraperitoneal
# [8] = single injection of 10 mg/kg AUDA-BE
molecule,measurement,setting,value
"CCCCCC1OC1C/C=C\C/C=C\C/C=C\CCCC(=O)O (stereo not shown) [14,15-EET]",cell survival after OGD,[1],improved cell survival
same,"cell death (propidium iodide, % of all cells)","[1]; excess 14,15-EET (1 μM) in Arg287Gln-transduced cardiomyocytes, 1.5 hours OGD, 3 hours re-oxygenation",45±1%
same,Infarct Volume,mice [2]; PRO (given prior to reperfusion),12 ± 2 mm^3
same,infarct size after myocardial I/R compared to vehicle,mice [2]; given before ischemia or before reperfusion,significantly reduced
same,Infarct Volume,mice [2]; [6],10 ± 1 mm^3
same,bleeding in pilot studies following heparin administration,"mice [2]; mouse, in vivo",excessive bleeding
same,"reducing I/AAR, injection prior to reperfusion compared to pre-ischemic delivery","mice [2]; mouse, in vivo",less effective
same,infarct size after MCAO,"mice [3]; 14,15-EET 1 μg over 24 hours via osmotic minipump, jugular vein, vehicle 34.5±8.6%",10.9±4.3%
"CCCCCC1OC1CCCCCCC/C=C\CCCC(=O)O (stereo not shown) [14,15-EEZE, 14,15-epoxyeicosa-5(Z)-enoic acid]",infarct size after MCAO,"mice [3]; sEHKO mice, 10 μg over 24 hours via minipump, mean±SD, vehicle-treated sEHKO 9.1±9.5",9.4±12.4
12-(3-adamantan-1-yl-ureido)-butyl acid [AUBA],levels detected in homogenates of brain tissue,[4],not
C=CCN1C[C@H](C)N([C@@H](c2ccccc2)c2ccc(C(=O)N(CC)CC)cc2)C[C@H]1C [SNC-162],Infarct Volume,mice [2]; [6],9 ± 2 mm^3
"O=C(O)CCCCCCCCCCCNC(=O)NC12CC3CC(CC(C3)C1)C2 [AUDA, 12-(3-adamantan-1-yl-ureido)-dodecanoic acid]",peak concentration in plasma,[5]; [7],52 nmol/L
same,time of peak concentration in plasma,[5]; [7],1 h
same,half time of elimination in plasma,"[5]; AUDA-BE 10 mg/kg intraperitoneal, non-compartmental model",7 h
same,maximum concentration in plasma,"[5]; AUDA-BE 40 mg/kg intraperitoneal, within the first hour",4 µmol/L
same,MRT,"[5]; C57Bl/6, mouse, plasma, ip, 10 mg/kg, read-out: mean residence time in plasma",9 h
same,MRT,"[4]; C57Bl/6, mouse, brain, intraperitoneal, 10 mg/kg, read-out: mean residence time in brain",6 h
same,levels detected in homogenates of brain tissue,[4],significant levels
same,half-time elimination in brain,[4]; [8],4 h
same,time to maximum concentration in brain,[4]; [8],≤ 3 h
"C#CCOc1ccccc1CCCCCC(=O)NS(C)(=O)=O [MS-PPOH, N-methylsulfonyl-6-(2-propargyloxyphenyl)hexanamide]",infarct size after MCAO,C57Bl/6 mice,24±6%
"O=C(c1ccccc1)C1OC1c1ccc(-c2ccccc2)cc1 (stereo not shown) [4-PCO, 4-phenylchalcone oxide]",cell survival after OGD,[1],improved cell survival significantly
